We go through 20 compounds from ChEMBL document CHEMBL1137163, “Structure-activity relationships of potent and selective factor Xa inhibitors: benzimidazole derivatives with the side chain oriented to the prime site of factor Xa” (Bioorg Med Chem Lett, 2004).

The term IC50 denotes the concentration that gives 50% inhibition. The low end stands for inhibition by little substance, the high end for a need for much substance. The term ED50 denotes the dose at which the effect has come halfway, by size or by number of responders. A higher ED50 goes with weaker potency.

The target of one experiment is Coagulation factor X (Homo sapiens, UniProt P00742). Nature of the experiment: Inhibitory concentration against human Coagulation factor X.
Coagulation factor X, sequence (P00742 41-179 limits assumed): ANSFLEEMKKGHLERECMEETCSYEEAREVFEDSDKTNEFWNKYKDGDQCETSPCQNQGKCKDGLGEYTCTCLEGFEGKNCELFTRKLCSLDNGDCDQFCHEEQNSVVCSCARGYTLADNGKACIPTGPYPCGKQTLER
Coagulation factor X, sequence (P00742 235-488 limits assumed): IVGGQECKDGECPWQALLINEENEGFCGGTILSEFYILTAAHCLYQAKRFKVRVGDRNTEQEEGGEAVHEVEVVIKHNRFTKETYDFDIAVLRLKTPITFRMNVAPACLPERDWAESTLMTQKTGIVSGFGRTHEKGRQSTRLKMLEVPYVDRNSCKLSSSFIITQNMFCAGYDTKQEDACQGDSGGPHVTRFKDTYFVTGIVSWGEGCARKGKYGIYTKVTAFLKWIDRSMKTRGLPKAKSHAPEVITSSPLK
Another experiment deals with Prothrombin (Homo sapiens, UniProt P00734). Nature of the experiment: Inhibitory concentration against Coagulation factor II.
A further experiment is filed under the species Mus musculus. Nature of the experiment: Concentration required to produce 50% inhibition of tissue factor-induced platelet aggregation in disseminated intravascular coagulation (DIC) mouse model. It counts as functional.

On to `CC(=N)N1CCC(Oc2ccc(N(Cc3nc4cc(C(=N)N)ccc4n3CC(=O)NC(C)(C)c3ccccc3)C(=O)c3ccc(C(=O)O)cc3)cc2)CC1`, for which the results for the IC50 at Coagulation factor X and against Prothrombin were 200 nM and > 10000 nM, respectively.
Take `CC(=N)N1CC[C@H](Oc2ccc(CCc3cc4cc(C(=N)N)ccc4o3)cc2)C1`: the IC50 against Coagulation factor X was 600 nM; against Prothrombin, > 10000 nM.
With `CC(=N)N1CCC(Oc2ccc(N(Cc3nc4cc(C(=N)N)ccc4n3CC(=O)NC3CCCCC3)C(=O)c3ccc(C(=O)O)cc3)cc2)CC1.Cl.Cl`, the ED50 in the experiment listed under Mus musculus turned out to be 0.2 mg/kg.
For the compound `CC(=N)N1CCC(Oc2ccc(OCc3nc4cc(C(=N)N)ccc4n3CC(=O)NC(C)c3ccccc3)cc2)CC1` (centres undefined), the values for the IC50 on Coagulation factor X and against Prothrombin were 30 nM and > 10000 nM, respectively.
In the case of `CC(=N)N1CCC(Oc2ccc(N(Cc3nc4cc(C(=N)N)ccc4n3CC(=O)NCc3ccc(Cl)c(Cl)c3)C(=O)c3ccc(C(=O)O)cc3)cc2)CC1.Cl.Cl`, the IC50 on Coagulation factor X was 6 nM; against Prothrombin, > 10000 nM. Moreover, the 50% effect level in the experiment filed under Mus musculus (ED50) was put at a dose of 0.7 mg/kg.
On to `CC(=N)N1CCC(Oc2ccc(N(Cc3nc4cc(C(=N)N)ccc4n3CC(=O)Nc3ccc(Cl)c(Cl)c3)C(=O)c3ccc(C(=O)O)cc3)cc2)CC1.Cl.Cl`, for which the IC50 on Coagulation factor X was 200 nM; against Prothrombin, > 10000 nM. In the experiment listed under Mus musculus, the 50% effect level (ED50) was put at a dose of 0.7 mg/kg.
Consider `CC(=N)N1CCC(Oc2ccc(OCc3nc4cc(C(=N)N)ccc4n3CC(=O)NCC3CCCCC3)cc2)CC1`, for which the IC50 on Coagulation factor X is 300 nM; at Prothrombin, > 10000 nM.
For `CC(=N)N1CCC(Oc2ccc(OCc3nc4cc(C(=N)N)ccc4n3CC(=O)NCCCc3ccccc3)cc2)CC1`, in that order: 200 nM and > 10000 nM.
As to `N=C(N)c1ccc2c(c1)nc(CN(C(=O)c1ccc(C(=O)O)cc1)c1ccc(OC3CCNC3)cc1)n2CC(=O)NC1CCCCC1` (centres undefined), the IC50 on Coagulation factor X is 300 nM; against Prothrombin, > 10000 nM.
With `CC(=N)N1CCC(Oc2ccc(OCc3nc4cc(C(=N)N)ccc4n3CC(=O)NCc3ccc(Cl)c(Cl)c3)cc2)CC1`, the IC50 was 30 nM against Coagulation factor X and > 10000 nM on Prothrombin.
Regarding `N=C(N)c1ccc2c(c1)nc(CN(C(=O)c1ccc(C(=O)O)cc1)c1ccc(OC3CCN(C(=N)NCc4ccccc4)CC3)cc1)n2CC(=O)NC1CCCCC1`, the IC50 against Prothrombin is > 10000 nM.
Regarding `CC(=N)N1CCC(Oc2ccc(N(Cc3nc4cc(C(=N)N)ccc4n3CC(=O)NC3CCCCC3)C(=O)c3ccc(C(=O)O)cc3)cc2)C1` (centres undefined), the IC50 is 100 nM on Coagulation factor X and > 10000 nM against Prothrombin.
Consider `CC(=N)N1CCC(Oc2ccc(OCc3nc4cc(C(=N)N)ccc4n3CC(=O)Nc3ccc(Cl)c(Cl)c3)cc2)CC1`, for which the IC50 against Coagulation factor X was 60 nM; against Prothrombin it was > 10000 nM.
For `CC(=N)N1CCC(Oc2ccc(OCc3nc4cc(C(=N)N)ccc4n3CC(=O)N3CCCCC3)cc2)CC1`, in that order: 3000 nM and > 10000 nM.
For `CC(=N)N1CCC(Oc2ccc(OCc3nc4cc(C(=N)N)ccc4n3CC(=O)NC3CCCCC3)cc2)CC1`, in that order: 40 nM and > 10000 nM.
For `CCn1c(COc2ccc(OC3CCN(C(C)=N)CC3)cc2)nc2cc(C(=N)N)ccc21`, in that order: 400 nM and > 10000 nM.
Consider `N=C(N)c1ccc(Oc2ccc(N(Cc3nc4cc(C(=N)N)ccc4n3CC(=O)NC3CCCCC3)C(=O)c3ccc(C(=O)O)cc3)cc2)cc1`, for which the values for the IC50 at Coagulation factor X and on Prothrombin were 2000 nM and > 10000 nM, respectively.
For the compound `CC(=N)N1CCC(Oc2ccc(OCc3nc4cc(C(=N)N)ccc4n3CC(=O)NCc3ccccc3)cc2)CC1`, the figures for the IC50 on Coagulation factor X and against Prothrombin were 100 nM and > 10000 nM, respectively.
In the case of `CC(=N)N1CCC(Oc2ccc(OCc3nc4cc(C(=N)N)ccc4n3CC(=O)Nc3ccccc3)cc2)CC1`, the IC50 against Coagulation factor X is 100 nM; against Prothrombin, > 10000 nM.
Regarding `CC(=N)N1CC[C@H](Oc2ccc([C@H](Cc3ccc4ccc(C(=N)N)cc4c3)C(=O)O)cc2)C1.Cl` [DX-9065A HYDROCHLORIDE HYDRATE], it took a dose of 0.5 mg/kg to reach the 50% effect level in the experiment listed under Mus musculus (ED50).
